Experimental data as given in patent US6271215A, “Sulfated oligosaccharides having anticoagulant/antithrombotic activity” (The Australian National University, priority 1997, dated 2001).

Key:
human plasma = assay: Activated partial thromboplastin time (APTT) test, human plasma; format: biochemical; settings: for Increase in Coagulation Time: increase in coagulation time (seconds) from a 1 μg/ml increase in concentration, linear regression, pooled plasma from 90 donors; for anticoagulant activity (in words): APTT test; for Relative Increase in Coagulation Time: Human plasma, vs untreated control; for Coagulation Time: PI-88 8.6 μg/ml
Text: Heparin (anticoagulant activity 120 U/mg) is included for comparison. Data obtained with pooled plasma from 90 donors, the coagulation time of the plasma being 30.8 seconds in the absence of inhibitors. Results representative of four separate experiments. Table 1 summarises the anticoagulant activity of 19 sulfated oligosaccharides, as measured by the activated partial thromboplastin time (APTT) test. Similar results were obtained with the thrombin time test. […] Chain length, monosaccharide makeup and linkage, all appear to be critical factors. […] Furthermore, a striking feature of the maltose series is that chain elongation y a single residue from the maltotetraose to maltopentaose results in a 19-fold increase in anticoagulant activity. […] The glucose series of oligosaccharides emphasizes the importance of monosaccharide linkage on activity. […] There are additional, more subtle, effects of monosaccharide linkage on anticoagulant activity. […] Values | obtained from a linear regression analysis of the coagulation data. |^a Coagulation times estimated using the APTT test. Similar results | were obtained in duplicate assays. Concentrations of heparin and | mannopentaose phosphate SO4 (PI-88) were used which prolonged the |^a Coagulation times estimated by the APTT test. Data expressed as fold | increase in coagulation time induced by the anticoagulant compared with | untreated control.

mouse plasma = assay: APTT test, mouse plasma; format: biochemical; settings: for Relative Increase in Coagulation Time: APTT, Mouse plasma, vs untreated control
Text: (§1) Some additional biological properties of one of the sulfated oligosaccharides, PI-88, were defined. […] Protamine is frequently used clinically to reverse the anticoagulant effects of heparin and Fragmin. […] Finally, PI-88 was examined for its ability to act as an anticoagulant in a range of mammalian species. […] Thus, sulfated oligosaccharides potentially can be used as anticoagulants/antithrombotics not only in humans but in a wide range of mammalian species.
(§2) ^a Coagulation times estimated by the APTT test. Data expressed as fold
(§3) increase in coagulation time induced by the anticoagulant compared with […]

factor Xa = assay: Anti-thrombin III mediated anti-factor Xa activity, chromogenic (Helena) anti-Xa assay; format: biochemical; settings: FIG. 3
Method: Factor Xa activity was determined with the chromogenic (Helena) anti-Xa assay run on a Roche COBAS Fara biochemistry analyser.
(§4) The manner by which the sulfated oligosaccharides inhibit the coagulation cascade was then investigated.

marmoset plasma = assay: APTT test, marmoset plasma; format: biochemical; settings: for Relative Increase in Coagulation Time: APTT, Marmoset plasma, vs untreated control
Text: as §1, §2, §3

[1] = Inactivation of anticoagulant activity by protamine; format: biochemical
Text: as §1

Human platelet = assay: Collagen- or ADP-induced platelet aggregation (platelet aggregometer); format: cell-based; settings: for Relative Rate of Platelet Aggregation, ADP-induced Aggregation: ADP 10 μM, control without PI-88 81 ± 1; for Relative Rate of Platelet Aggregation, ADP-induced Aggregation / Relative Rate of Platelet Aggregation, Collagen-induced Aggregation: ± SD; for Relative Rate of Platelet Aggregation, Collagen-induced Aggregation: collagen 9 μg/ml, control without PI-88 114 ± 8
Method: ^a Human platelet aggregation induced by either collagen (9 μg/ml)
or ADP (10 μM) and relative rates of platelet aggregation estimated, in
the presence or absence of PI-88, using a platelet aggregometer. Data ±
SD representative of two platelet donors.

rat plasma = assay: APTT test, rat plasma; format: biochemical; settings: for Relative Increase in Coagulation Time: APTT, Rat plasma, vs untreated control
Text: as §1, §2, §3

heparin cofactor II = assay: Plasma free system: purified heparin cofactor II, thrombin and chromogenic thrombin substrate; format: biochemical; settings: data not shown
Text: as §4

thrombin = assay: Anti-thrombin III mediated anti-thrombin activity, chromogenic assays; format: biochemical
Text: as §4

rabbit plasma = assay: APTT test, rabbit plasma; format: biochemical; settings: for Relative Increase in Coagulation Time: APTT, Rabbit plasma, vs untreated control
Text: as §1, §2, §3

sheep plasma = assay: APTT test, sheep plasma; format: biochemical; settings: for Relative Increase in Coagulation Time: APTT, Sheep plasma, vs untreated control
Text: as §1, §2, §3

dog plasma = assay: APTT test, dog plasma; format: biochemical; settings: for Relative Increase in Coagulation Time: APTT, Dog plasma, vs untreated control
Text: as §1, §2, §3

## O=S(=O)(O)OC[C@H]1O[C@@](COS(=O)(=O)O)(O[C@H]2O[C@H](COS(=O)(=O)O)[C@@H](OS(=O)(=O)O)[C@H](OS(=O)(=O)O)[C@H]2OS(=O)(=O)O)[C@@H](OS(=O)(=O)O)[C@@H]1OS(=O)(=O)O [Sucrose SO4]
Human plasma; APTT
  Increase in Coagulation Time: 0.39 s/µg

## Cellohexaose SO4
Human plasma; APTT
  Increase in Coagulation Time: 4.8 s/µg

## Cellopentaose SO4
Human plasma; APTT
  Increase in Coagulation Time: 3.5 s/µg

## Cellotetraose SO4
Human plasma
  anticoagulant activity (in words): reasonably potent anticoagulant
Human plasma; APTT
  Increase in Coagulation Time: 4.2 s/µg

## Chitosan hexamer SO4
Human plasma
  anticoagulant activity (in words): negligible anticoagulant activity
Human plasma; APTT
  Increase in Coagulation Time: 0.4 s/µg

## Isomaltohexaose SO4
Human plasma; APTT
  Increase in Coagulation Time: 6.56 s/µg

## Isomaltopentaose SO4
Human plasma
  anticoagulant activity (in words): substantially less effective anticoagulant
Human plasma; APTT
  Increase in Coagulation Time: 1.85 s/µg

## Laminariheptaose SO4
Human plasma; APTT
  Increase in Coagulation Time: 0.5 s/µg

## Laminarihexaose SO4
Human plasma; APTT
  Increase in Coagulation Time: 0.9 s/µg

## Laminaritetraose SO4
Human plasma; APTT
  Increase in Coagulation Time: 2.9 s/µg

## Maltoetraose SO4
Human plasma; APTT
  Increase in Coagulation Time: 0.28 s/µg

## Maltoheptaose SO4
Human plasma
  anticoagulant activity (in words): quite effective anticoagulants
Human plasma; APTT
  Increase in Coagulation Time: 5.9 s/µg

## Maltohexaose SO4
Human plasma
  anticoagulant activity (in words): quite effective anticoagulants
Human plasma; APTT
  Increase in Coagulation Time: 5.85 s/µg

## Maltopentaose SO4
Human plasma
  anticoagulant activity (in words): quite effective anticoagulants
Human plasma; APTT
  Increase in Coagulation Time: 5.25 s/µg
Human plasma; APTT, relative to the maltotetraose sulfate
  increase in anticoagulant activity on chain elongation from maltotetraose to maltopentaose: 19 fold

## Maltose SO4
Human plasma; APTT
  Increase in Coagulation Time: 0.31 s/µg

## Maltotriose SO4
Human plasma; APTT
  Increase in Coagulation Time: 0.25 s/µg

## Mannopentaose SO4
Human plasma; APTT
  Increase in Coagulation Time: 5.32 s/µg

## Mannopentaose phosphate SO2 (PI-88)
Human plasma; APTT
  Increase in Coagulation Time: 5.67 s/µg

## Mannopentaose phosphate SO4 (PI-88)
Human plasma; APTT
  Increase in Coagulation Time: 5.04 s/µg

## mannopentaose phosphate sulfate [PI-88]
Mouse plasma; PI-88 2.24 μg/ml
  Relative Increase in Coagulation Time: 1.13 fold
Mouse plasma; PI-88 22.4 μg/ml
  Relative Increase in Coagulation Time: 3.03 fold
Mouse plasma; mouse plasma
  ability to act as an anticoagulant (in words): effective anticoagulant
Factor Xa
  fold less active than heparin or LMW heparin (Fragmin), anti-thrombin III mediated factor Xa inhibitory activity: 100-1000 fold
Marmoset plasma; PI-88 2.24 μg/ml
  Relative Increase in Coagulation Time: 1.40 fold
Marmoset plasma; PI-88 22.4 μg/ml
  Relative Increase in Coagulation Time: 2.86 fold
Marmoset plasma; marmoset plasma
  ability to act as an anticoagulant (in words): effective anticoagulant
[1]
  inactivation of the anticoagulant activity by protamine (in words): effectively inactivate
Human platelet
  inhibition of collagen- and ADP-induced platelet aggregation (in words): very weak inhibitor
Human platelet; PI-88 21 μg/ml
  Relative Rate of Platelet Aggregation, ADP-induced Aggregation: 74 ± 1
  Relative Rate of Platelet Aggregation, Collagen-induced Aggregation: 97 ± 8
Human platelet; PI-88 210 μg/ml
  Relative Rate of Platelet Aggregation, ADP-induced Aggregation: 72 ± 1
  Relative Rate of Platelet Aggregation, Collagen-induced Aggregation: 86 ± 10
Human platelet; PI-88 2100 μg/ml
  Relative Rate of Platelet Aggregation, ADP-induced Aggregation: 56 ± 2
  Relative Rate of Platelet Aggregation, Collagen-induced Aggregation: 79 ± 0
Rat plasma; PI-88 2.24 μg/ml
  Relative Increase in Coagulation Time: 1.54 fold
Rat plasma; PI-88 22.4 μg/ml
  Relative Increase in Coagulation Time: > 5.88 fold
Rat plasma; rat plasma
  ability to act as an anticoagulant (in words): effective anticoagulant
Heparin cofactor II
  enhancement of the ability of heparin cofactor II to inhibit thrombin (in words): as effectively as heparin and dermatan sulfate
thrombin; initial studies
  enhancement of the ability of anti-thrombin III to inhibit thrombin (in words): did not enhance
thrombin; two different chromogenic assays, data not shown
  fold less active than heparin in enhancing anti-thrombin III mediated anti-thrombin activity: 700-7000 fold
Rabbit plasma; PI-88 2.24 μg/ml
  Relative Increase in Coagulation Time: 1.02 fold
Rabbit plasma; PI-88 22.4 μg/ml
  Relative Increase in Coagulation Time: 1.20 fold
Rabbit plasma; rabbit plasma
  ability to act as an anticoagulant (in words): only weakly active
Human plasma; APTT, PI-88 2.24 μg/ml
  Relative Increase in Coagulation Time: 1.42 fold
Human plasma; APTT, PI-88 22.4 μg/ml
  Relative Increase in Coagulation Time: 4.65 fold
Human plasma; APTT, Mean ± SD of 20 normal donors
  Coagulation Time: 88.3 ± 11.9 s
Human plasma; APTT, Normal Donor 1
  Coagulation Time: 77.3 s
Human plasma; APTT, Normal Donor 2
  Coagulation Time: 89.6 s
Human plasma; APTT, Normal Donor 3
  Coagulation Time: 94.0 s
Human plasma; APTT, Normal Donor 4
  Coagulation Time: 85.6 s
Human plasma; APTT, Normal Donor 5
  Coagulation Time: 101.9 s
Human plasma; APTT, Normal Donor 6
  Coagulation Time: 95.0 s
Human plasma; APTT, Normal Donor 7
  Coagulation Time: 115.3 s
Human plasma; APTT, Normal Donor 8
  Coagulation Time: 101.9 s
Human plasma; APTT, Normal Donor 9
  Coagulation Time: 85.2 s
Human plasma; APTT, Normal Donor 10
  Coagulation Time: 78.0 s
Human plasma; APTT, Normal Donor 11
  Coagulation Time: 93.6 s
Human plasma; APTT, Normal Donor 12
  Coagulation Time: 82.9 s
Human plasma; APTT, Normal Donor 13
  Coagulation Time: 85.5 s
Human plasma; APTT, Normal Donor 14
  Coagulation Time: 89.7 s
Human plasma; APTT, Normal Donor 15
  Coagulation Time: 81.2 s
Human plasma; APTT, Normal Donor 16
  Coagulation Time: 72.6 s
Human plasma; APTT, Normal Donor 17
  Coagulation Time: 108.0 s
Human plasma; APTT, Normal Donor 18
  Coagulation Time: 70.4 s
Human plasma; APTT, Normal Donor 19
  Coagulation Time: 93.6 s
Human plasma; APTT, Normal Donor 20
  Coagulation Time: 72.6 s
Human plasma; human plasma
  ability to act as an anticoagulant (in words): effective anticoagulant
Sheep plasma; PI-88 2.24 μg/ml
  Relative Increase in Coagulation Time: 1.88 fold
Sheep plasma; PI-88 22.4 μg/ml
  Relative Increase in Coagulation Time: > 4.98 fold
Sheep plasma; sheep plasma
  ability to act as an anticoagulant (in words): effective anticoagulant
Dog plasma; PI-88 2.24 μg/ml
  Relative Increase in Coagulation Time: 1.24 fold
Dog plasma; PI-88 22.4 μg/ml
  Relative Increase in Coagulation Time: 2.42 fold
Dog plasma; dog plasma
  ability to act as an anticoagulant (in words): effective anticoagulant
